“And” between values parts separate entries of the source, which are not always exact repeats. Equal values may be shown once.
Columns and labels:
Type in all cases: in vitro ADME
[1] = biological target: T1, CYP1A2 (Homo sapiens, UniProt P05177); assay: CYP inhibition, CYP1A2
T1 sequence (P05177 1-516): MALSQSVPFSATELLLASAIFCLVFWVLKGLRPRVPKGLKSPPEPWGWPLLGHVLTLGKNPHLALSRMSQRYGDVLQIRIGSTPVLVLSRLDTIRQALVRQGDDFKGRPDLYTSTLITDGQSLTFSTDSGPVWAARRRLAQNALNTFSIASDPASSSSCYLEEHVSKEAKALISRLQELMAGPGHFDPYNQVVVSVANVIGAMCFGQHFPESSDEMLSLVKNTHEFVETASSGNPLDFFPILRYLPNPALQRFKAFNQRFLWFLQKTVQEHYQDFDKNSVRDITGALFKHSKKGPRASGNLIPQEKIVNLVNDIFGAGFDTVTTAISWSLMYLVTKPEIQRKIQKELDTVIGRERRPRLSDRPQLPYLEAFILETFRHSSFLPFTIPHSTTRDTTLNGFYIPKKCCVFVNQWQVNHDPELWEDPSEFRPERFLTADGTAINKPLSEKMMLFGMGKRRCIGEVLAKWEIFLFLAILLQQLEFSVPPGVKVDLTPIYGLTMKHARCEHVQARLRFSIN
Procedure: (§1) At pre-set time-points, blood concentration of JH4 was determined by LC-MS/MS analysis[22],[23]. Other chemicals were also tested using similar protocol. In vitro ADME studies (plasma protein binding, CYP inhibition, microsomal stability, plasma stability, and hERG inhibition) were performed by New Drug Development Center (Daegu, Korea) using standard protocols[24],[25].

[2] = biological target: CYP2C9 (Homo sapiens, UniProt P11712); assay: CYP inhibition, CYP2C9; design: unit not given here
Chain of CYP2C9 (P11712 whole entry): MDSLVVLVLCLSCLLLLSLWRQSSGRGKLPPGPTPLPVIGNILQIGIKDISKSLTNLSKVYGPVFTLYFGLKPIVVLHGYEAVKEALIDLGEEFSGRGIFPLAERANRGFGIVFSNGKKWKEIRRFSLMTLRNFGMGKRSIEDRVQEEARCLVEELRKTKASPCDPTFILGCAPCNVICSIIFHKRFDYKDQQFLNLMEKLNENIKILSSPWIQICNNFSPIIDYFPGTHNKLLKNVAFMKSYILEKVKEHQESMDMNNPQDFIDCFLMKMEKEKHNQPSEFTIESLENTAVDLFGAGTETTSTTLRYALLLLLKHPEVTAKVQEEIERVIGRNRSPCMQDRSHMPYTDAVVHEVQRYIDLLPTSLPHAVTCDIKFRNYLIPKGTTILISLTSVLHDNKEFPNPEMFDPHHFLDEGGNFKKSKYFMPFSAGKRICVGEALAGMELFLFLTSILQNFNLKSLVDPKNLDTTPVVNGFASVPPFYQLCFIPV
Procedure: as §1

[3] = biological target: CYP2C19 (Homo sapiens, UniProt P33261); assay: CYP inhibition, CYP2C19
Chain of CYP2C19 (P33261 whole entry): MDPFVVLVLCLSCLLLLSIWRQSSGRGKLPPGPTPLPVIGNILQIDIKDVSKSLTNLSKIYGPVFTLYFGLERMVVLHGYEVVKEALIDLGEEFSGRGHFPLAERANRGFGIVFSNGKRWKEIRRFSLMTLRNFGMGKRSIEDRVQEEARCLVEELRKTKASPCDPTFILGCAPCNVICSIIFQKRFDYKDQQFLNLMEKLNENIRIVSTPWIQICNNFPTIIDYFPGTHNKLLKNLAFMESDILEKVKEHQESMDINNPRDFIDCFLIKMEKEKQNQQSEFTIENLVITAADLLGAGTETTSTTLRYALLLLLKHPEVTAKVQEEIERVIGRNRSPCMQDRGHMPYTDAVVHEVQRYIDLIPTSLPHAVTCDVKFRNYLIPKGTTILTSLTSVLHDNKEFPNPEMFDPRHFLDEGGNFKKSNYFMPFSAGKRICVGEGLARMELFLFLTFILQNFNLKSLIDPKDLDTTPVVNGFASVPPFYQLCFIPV
Procedure: as §1, with “For PK analysis, 5 mg/kg of JH4 in 10% DMSO, 5% […] solution were intravenously injected and 10 mg/kg of JH4 in 10% NMP and 90% PEG400 solution were orally delivered. At” for “At”

## CC(=O)N1CCN(c2ccc(OCC3COC(Cn4ccnc4)(c4ccc(Cl)cc4Cl)O3)cc2)CC1 (stereo not drawn) [Ketoconazole, reference compound]
[1]
  CYP inhibition: 99.1
[2]
  CYP inhibition: 100
[3]
  CYP inhibition: 99.5 and > 100
